In patent publication US9701670B2, “Pyrazolyl-ureas as kinase inhibitors” (RESPIVERT LIMITED, priority 2013, dated 2017):

Tests used:
BDF1 mice = experiment: (C) TNBS-induced colitis in mice; type: in vivo, mouse; set-up: TNBS Ulcer grade / TNBS LP inflammation: scale not given here; details: 2 days; for TNBS LP inflammation / TNBS Ulcer grade: mice
Procedure: Non-fasted, 10-12 week old, male BDF1 mice are dosed by oral gavage twice daily with either vehicle (5 mL/kg), reference item (Budesonide 2.5 mg/kg) or test compound (1, 5 or 50 mg/kg) one day before (Day −1) stimulation of the inflammatory response by treatment with 2,4,6-trinitrobenzenesulphonic acid (TNBS) (15 mg/mL in 50% ethanol/50% saline). On Day 0 of the study TNBS (200 μL) is administered intra-colonically via a plastic catheter followed by BID dosing of the vehicle, reference or test compound for 2 or 4 days. During the study animals are weighed every day and stool observations are made and recorded as a score, based on stool consistency. At the time of sacrifice on Day 2 (or Day 4) the large intestine is removed and the length and weight recorded. Sections of the colon are taken for either MPO analysis to determine neutrophil infiltration or for histopathology involving scoring to determine disease severity.

[1] = molecular target: T1, p38 MAPKα isoform (MAPK14) (Homo sapiens (Human), UniProt Q16539); experiment: p38 MAPKα enzyme inhibition (FRET, Z-LYTE), Method 1; type: biochemical; details: Method 1 (Table 4a1)
[2] = system: Differentiated U937 cells; experiment: (l) Cell viability: MTT assay; type: cell-based, human; details: 1 μg/mL
In short: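 Differentiated U937 cells were exposed to compound at 1 or 10 μg/mL either 4 h in 5% FCS RPMI1640 or 24 h in 10% FCS RPMI1640, then given MTT for 1 h, DMSO-solubilised and read at 550 nm. Percent viability loss versus 0.5% DMSO vehicle; apparent gains appear negative.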

[3] = molecular target: T1, p38 MAPKα isoform (MAPK14); experiment: p38 MAPKα enzyme inhibition (FRET, Z-LYTE), Method 2; type: biochemical; details: Method 2, different laboratory (Table 4a2)
Procedure: (§1) The enzyme inhibitory activities of compounds disclosed herein are determined by FRET using synthetic peptides labelled with both donor and acceptor fluorophores (Z-LYTE, Invitrogen Ltd., Paisley, UK).
The inhibitory activities of test compounds against the p38 MAPKα isoform (MAPK14: Invitrogen), are evaluated indirectly by determining the level of activation/phosphorylation of the down-stream molecule, MAPKAP-K2. The p38 MAPKα protein (80 ng/mL, 2.5 μL) is mixed with the test compound (2.5 μL of either 4 μg/mL, 0.4 μg/mL, 0.04 μg/mL or 0.004 μg/mL) for 2 hr at RT. […] The mixture is incubated for 1 hr at RT. Development reagent (protease, 5 μL) is added for 1 hr prior to detection in a fluorescence microplate reader (Varioskan® Flash, ThermoFisher Scientific).
(§2) In all cases, the site-specific protease cleaves non-phosphorylated peptide only and eliminates the FRET signal. Phosphorylation levels of each reaction are calculated using the ratio of coumarin emission (donor) over fluorescein emission (acceptor), for which high ratios indicate high phosphorylation and low ratios indicate low phosphorylation levels.

[4] = system: β-catenin in d-U937 cells; experiment: (m) Accumulation of β catenin in d-U937 cells; type: cell-based, human
Procedure: U937 cells, a human monocytic cell line, are differentiated into macrophage-type cells by incubation with PMA; (100 ng/mL) for between 48 to 72 hr. The cells are then incubated with either final concentrations of test compound or vehicle for 18 hr. The induction of β-catenin by the test compounds is stopped by replacing the media with 4% formaldehyde solution. Endogenous peroxide activity is neutralised by incubating with quenching buffer (100 μL, 0.1% sodium azide, 1% H2O2 in PBS with 0.05% Tween-20) for 20 min. The cells are washed with washing buffer (200 μL; PBS containing 0.05% Tween-20) and incubated with blocking solution (200 μL; 5% milk in PBS) for 1 hr, re-washed with washing buffer (200 μL) and then incubated overnight with anti-β-catenin antibody solution (50 μL) in 1% BSA/PBS (BD, Oxford, UK).
After washing with washing buffer (3×200 μL; PBS containing 0.05% Tween-20), cells are incubated with an HRP-conjugated secondary antibody solution (100 μL) in 1% BSA/PBS (Dako, Cambridge, UK) and the resultant signal is determined colourimetrically (OD: 450 nm with a reference wavelength of 655 nm) using TMB substrate (50 μL; R&D Systems, Abingdon, UK). This reaction is stopped by addition of 1N H2SO4 solution (50 μL). Cells are then washed with washing buffer and 2% crystal violet solution (50 μL) is applied for 30 min. After washing with washing buffer (3×200 μL), 1% SDS (100 μL) is added to each well and the plates are shaken lightly for 1 hr prior to measuring the absorbance at 595 nm (Varioskan® Flash, Thermo-Fisher Scientific).
The measured OD450-655 readings are corrected for cell number by dividing the OD450-655 by the OD595 readings. […] A signal less than 0.15 (15%) of that observed for the standard control is designated as “-ve”.

GSK 3α = GSK 3α (Homo sapiens (Human), UniProt P49840); experiment: GSK 3α enzyme inhibition (FRET, Z-LYTE), Method 2; type: biochemical; details: Method 2, different laboratory (Table 4a2); read-out: IC50 Values for Enzyme Inhibition GSK3α
Procedure: as §1
The inhibitory activities of compounds of the invention against the GSK 3α enzyme isoform (Invitrogen), are evaluated by determining the level of activation/phosphorylation of the target peptide. The GSK3-α protein (500 ng/mL, 2.5 μL) is mixed with the test compound (2.5 μL at either 4 μg/mL, 0.4 μg/mL, 0.04 μg/mL, or 0.004 μg/mL) for 2 hr at RT. The FRET peptide (8 μM, 2.5 μL), which is a phosphorylation target for GSK3α, and ATP (40 μM, 2.5 μL) are then added to the enzyme/compound mixture and the resulting mixture incubated for 1 hr. Development reagent (protease, 5 μL) is added for 1 hr prior to detection in a fluorescence microplate reader (Varioskan® Flash, ThermoFisher Scientific).
as §2

[5] = system: Intestinal mucosa biopsies from the inflamed regions of the colon of IBD patients; experiment: (h) Human biopsy assay (cytokine release); type: cell-based
Procedure: Intestinal mucosa biopsies are obtained from the inflamed regions of the colon of IBD patients. The biopsy material is cut into small pieces (2-3 mm) and placed on steel grids in an organ culture chamber at 37° C. in a 5% CO2/95% O2 atmosphere in serum-free media. DMSO control or test compounds at the desired concentration are added to the tissue and incubated for 24 hr in the organ culture chamber. The supernatant is harvested for determination of IL-6, IL-8, […] and TNFα levels by R&D ELISA.

T1 sequence (Q16539 whole entry, canonical isoform): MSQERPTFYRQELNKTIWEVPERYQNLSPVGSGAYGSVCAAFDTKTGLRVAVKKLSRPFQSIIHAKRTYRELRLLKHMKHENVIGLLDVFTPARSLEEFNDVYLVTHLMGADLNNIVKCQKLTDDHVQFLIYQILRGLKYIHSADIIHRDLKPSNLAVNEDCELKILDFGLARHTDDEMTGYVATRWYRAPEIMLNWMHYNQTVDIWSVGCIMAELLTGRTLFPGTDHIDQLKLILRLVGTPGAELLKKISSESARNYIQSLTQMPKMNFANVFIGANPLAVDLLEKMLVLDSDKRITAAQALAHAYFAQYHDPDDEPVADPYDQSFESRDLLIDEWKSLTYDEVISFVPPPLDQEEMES
Sequence of GSK 3α (P49840 whole entry): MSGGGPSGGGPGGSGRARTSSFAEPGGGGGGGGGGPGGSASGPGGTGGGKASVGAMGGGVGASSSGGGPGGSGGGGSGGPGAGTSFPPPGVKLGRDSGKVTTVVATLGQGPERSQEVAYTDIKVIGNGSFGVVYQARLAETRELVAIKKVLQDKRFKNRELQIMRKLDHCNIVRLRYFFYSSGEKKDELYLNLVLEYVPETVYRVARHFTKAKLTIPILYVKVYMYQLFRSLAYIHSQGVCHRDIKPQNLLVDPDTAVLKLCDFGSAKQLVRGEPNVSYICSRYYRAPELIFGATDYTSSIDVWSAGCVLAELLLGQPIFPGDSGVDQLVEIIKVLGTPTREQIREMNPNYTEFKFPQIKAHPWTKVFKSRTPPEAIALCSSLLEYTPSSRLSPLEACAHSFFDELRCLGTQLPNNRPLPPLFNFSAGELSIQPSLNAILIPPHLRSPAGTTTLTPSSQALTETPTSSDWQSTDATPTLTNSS

Compound	IC50 [1] [nM]	IC50 (GSK 3α) [nM]	Cell viability at time point in d-U937 cells 4 h [2]	Cell viability at time point in d-U937 cells 24 h [2]	further results
CCCC1O[C@@H]2C[C@H]3[C@@H]4CCC5=CC(=O)C=C[C@]5(C)[C@H]4[C@@H](O)C[C@]3(C)[C@]2(C(=O)CO)O1 (stereo partly shown) [Budesonide, reference compound]	–	–	–	–	TNBS LP inflammation (BDF1 mice; 2.5 mg/kg oral BID): 2.5 ± 0.4; TNBS Ulcer grade (BDF1 mice; 2.5 mg/kg oral BID): 2.9 ± 0.6
COCCNC(=O)c1cc(Nc2nccc(Oc3ccc(NC(=O)Nc4cc(C(C)C)nn4-c4ccc(OC)cc4)c4ccccc34)n2)cc(OC)c1 [Example 11, 3-((4-((4-(3-(3-Isopropyl-1-(4-methoxyphenyl)-1H-pyrazol-5-yl)ureido)naphthalen-1-yl)oxy)pyrimidin-2-yl)amino)-5-methoxy-N-(2-methoxyethyl)benzamide]	25	–	−ve (−ve and +ve indicate that the value is below and above respectively, the no significant effect threshold, defined as 30% inhibition at 1 μg/mL at the time point indicated.)	−ve (−ve and +ve indicate that the value is below and above respectively, the no significant effect threshold, defined as 30% inhibition at 1 μg/mL at the time point indicated.)	IC50 [3]: 104 nM; % β-catenin induction ([4]; 1 μg/mL test compound): −1%; % β-catenin induction ([4]; 5 μg/mL test compound): 1%; % β-catenin induction ([4]; 10 μg/mL test compound): 1%
COc1cc(C(=O)NCCN2CCOCC2)ccc1Nc1nccc(Oc2ccc(NC(=O)Nc3cc(C(C)C)nn3-c3ccc(C)cc3)c3ccccc23)n1 [Example 36, 4-((4-((4-(3-(3-isopropyl-1-(p-tolyl)-1H-pyrazol-5-yl)ureido)naphthalen-1-yl)oxy)pyrimidin-2-yl)amino)-3-methoxy-N-(2-morpholinoethyl)benzamide]	13	13200	−ve (−ve and +ve indicate that the value is below and above respectively, the no significant effect threshold, defined as 30% inhibition at 1 μg/mL at the time point indicated.)	−ve (−ve and +ve indicate that the value is below and above respectively, the no significant effect threshold, defined as 30% inhibition at 1 μg/mL at the time point indicated.)	–
C#Cc1cc(Nc2nccc(Oc3ccc(NC(=O)Nc4cc(C(C)C)nn4-c4ccc(C)cc4)c4ccccc34)n2)cc(C(=O)NCCN2CCOCC2)c1 [Example 46, 3-ethynyl-5-((4-((4-(3-(3-isopropyl-1-(p-tolyl)-1H-pyrazol-5-yl)ureido)naphthalen-1-yl)oxy)pyrimidin-2-yl)amino)-N-(2-morpholinoethyl)benzamide]	–	–	−ve (−ve and +ve indicate that the value is below and above respectively, the no significant effect threshold, defined as 30% inhibition at 1 μg/mL at the time point indicated.)	−ve (−ve and +ve indicate that the value is below and above respectively, the no significant effect threshold, defined as 30% inhibition at 1 μg/mL at the time point indicated.)	IC50 [3]: 41 nM; histopathology analysis, in vivo model of colonic inflammation (BDF1 mice; TNBS-induced colitis, dosed orally at 5 mg/kg): significant activity; TNBS LP inflammation (BDF1 mice; 1 mg/kg oral BID): 3.1 ± 0.6; TNBS Ulcer grade (BDF1 mice; 1 mg/kg oral BID): 3.4 ± 0.6; TNBS LP inflammation (BDF1 mice; 5 mg/kg oral BID): 2.0 ± 0.5; TNBS Ulcer grade (BDF1 mice; 5 mg/kg oral BID): 2.4 ± 0.6; Cytokine release from biopsies of UC patients IL-1b release ([5]; 1 μg/mL, DMSO control 100%): 35 ± 14%; Cytokine release from biopsies of UC patients IL-6 release ([5]; 1 μg/mL, DMSO control 100%): 44 ± 38%; Cytokine release from biopsies of UC patients IL-8 release ([5]; 1 μg/mL, DMSO control 100%): 49 ± 35%; cytokine release from biopsies from ulcerative colitis (UC) patients ([5]; added to biopsies in vitro): markedly reduced IL-1b, IL-6 and IL-8 release
C#Cc1cc(Nc2nccc(Oc3ccc(NC(=O)Nc4cc(C(C)C)nn4-c4ccc(C)cc4)c(Cl)c3Cl)n2)cc(C(N)=O)c1 [Example 89, 3-((4-(2,3-Dichloro-4-(3-(3-isopropyl-1-(p-tolyl)-1H-pyrazol-5-yl)ureido)-phenoxy)pyrimidin-2-yl)amino)-5-ethynylbenzamide]	–	15300	–	–	–

Further lines, with some results ahead:

IC50 [1] [nM]	IC50 (GSK 3α) [nM]	Compound	Cell viability at time point in d-U937 cells 4 h [2]	Cell viability at time point in d-U937 cells 24 h [2]	further results
2	13500	CCc1cc(NC(=O)Nc2ccc(Oc3ccnc(Nc4cc(OC)cc(C(=O)NCCN5CCOCC5)c4)n3)c3ccccc23)n(-c2ccc(C)cc2)n1 [Example 49, 3-((4-((4-(3-(3-ethyl-1-(p-tolyl)-1H-pyrazol-5-yl)ureido)naphthalen-1-yl)oxy)pyrimidin-2-yl)amino)-5-methoxy-N-(2-morpholinoethyl)benzamide]	−ve (−ve and +ve indicate that the value is below and above respectively, the no significant effect threshold, defined as 30% inhibition at 1 μg/mL at the time point indicated.)	−ve (−ve and +ve indicate that the value is below and above respectively, the no significant effect threshold, defined as 30% inhibition at 1 μg/mL at the time point indicated.)	–
2	13300	COc1cc(Nc2nccc(Oc3ccc(NC(=O)Nc4cc(C5CC5)nn4-c4ccc(C)cc4)c4ccccc34)n2)cc(C(=O)NCCN2CCOCC2)c1 [Example 50, 3-((4-((4-(3-(3-cyclopropyl-1-(p-tolyl)-1H-pyrazol-5-yl)ureido)naphthalen-1-yl)oxy)pyrimidin-2-yl)amino)-5-methoxy-N-(2-morpholinoethyl)benzamide]	−ve (−ve and +ve indicate that the value is below and above respectively, the no significant effect threshold, defined as 30% inhibition at 1 μg/mL at the time point indicated.)	−ve (−ve and +ve indicate that the value is below and above respectively, the no significant effect threshold, defined as 30% inhibition at 1 μg/mL at the time point indicated.)	–
